Experimental data reported in patent US5122448A, “Assay of anti-Epstein-Barr virus nuclear antigen antibodies with synthetic polypeptides” (Scripps Clinic and Research Foundation, priority 1990, dated 1992).
Residues, ends and D or L forms follow the SMILES beside them.

Assays:
[1] = Circular dichroism spectroscopy; format: physicochemical; conditions: 1 mg/ml in phosphate buffered saline
Description: The conformational properties of the polypeptides were investigated to elucidate any secondary structure that might be necessary for polypeptide immunoreaction with human anti-EBNA antibodies. The polypeptides were dissolved at a concentration of 1 mg/ml in phosphate-buffered saline (PBS). Spectra were taken using 1 ml samples in a Cary 61 spectropolarimeter (Cary Instruments, Applied Physics Corp., Monrovia, Calif.) interfaced and automated with a Digital Equipment Corporation 11/02 computer (Digital Equipment Corporation, Maynard, Mass.).

anti-EBNA antibodies = assay: ELISA with polypeptide as solid phase antigen, anti-polypeptide activity of sera (OD405); format: binding, human; conditions: for Reaction of VCA+ sera with polypeptide: clinically normal VCA+ individuals, two dilutions; for Reaction of VCA- sera with polypeptide: panel of 19 VCA- sera; for Number of anti-EBNA positive sera positive against (bound to) polypeptide: 91 ACIF anti-EBNA positive sera, 1:20 dilution; for Titer of PSS patients versus normals: Progressive Systemic Schlerosis patients; for OD405 × 10^3 obtained with Patient Antibodies to peptide: serum 1:20
Description: Briefly, microtiter wells (Costar, #3590, Cambridge, MA) were typically coated with individual polypeptides as antigens by adding 100 microliters (ul) of BBS [10 millimoler (mM) sodium borate (pH 8.3), 150 mM NaCl] containing polypeptide at a concentration of 10 micrograms per milliliter (ug/ml). Contact between the wells and antigen-containing solution was maintained for a predetermined time, typically 15 minutes, and at 20 degrees C., to form an antigen-coated solid phase. The solid and liquid phases were separated and the wells were washed three times with BBS.
Non-specific binding sites were blocked by admixing 200 microliters of 1% bovine serum albumin (BSA) in each well to form another solid/liquid phase admixture, and maintaining that solid/liquid phase admixture for 30 minutes, at 20 degrees C. The phases were separated and excess, unbound BSA was removed by washing three times with BBS.
The antibodies in human sera that immunoreacted with an adsored polypeptide were detected using an indicating means comprising alkaline phosphatase-conjugated goat anti-human Ig antibody (Tago, Burlington, Calif.). The antibodies in rabbit sera that immunoreacted with an adsorbed polypeptide were detected using an indicating means comprising alkaline phosphatase-conjugated goat anti-rabbit Ig antibody (Kirkegard & Perry Laboratories, Inc., Gaithersburg, MD). In either instance, 100 microliters of the indicating antibody diluted 1:300 in BBS were added per well to form a further solid/liquid phase composition. This solid-liquid phase composition was maintained for a predetermined time, one hour, for the formation of a reaction product between the human antibodies bound to the solid phase and the indicating means, and at 20 degrees C. The phases were separated, and the solid phase was washed 3 times with BBS.
Alkaline phosphatase-conjugated antibody bound to polypeptide specific antibody was detected by spectrophotometrically measuring the enzymatic hydrolysis of p-nitrophenyl phosphate to p-nitrophenol. Briefly, 100 microliters of p-nitrophenyl phosphate [1 milligram per milliliter in 2 mM MgCl 2, (pH 9.8), 50 mM sodium carbonate] were added to each well. The enzymatic reaction was allowed to proceed 1 hour and then the optical density at 405 nm was determined in a [sequence] spectrophotometer available from Flow Laboratories, Inglewood, Calif.

[2] = system: rabbit anti-polypeptide antibody to polypeptide P62; assay: Competition ELISA with rabbit anti-polypeptide P62 antibody on solid phase P62; format: binding; conditions: antibody first incubated with competing polypeptide
Description: Anti-peptide antibody binding and inhibition studies were carried out by an enzyme-linked immunosorbent assay (ELISA) as described below.
Contact between the wells and antigen-containing solution was maintained for a predetermined time, typically 15 minutes, and at 20 degrees C., to form an antigen-coated solid phase. The solid and liquid phases were separated and the wells were washed three times with BBS.
Rabbit and human sera (body sample aliquots) were assayed for anti-polypeptide activity by adding 100 microliters of a serum diluted 1:20 in BBS per well to form a solid/liquid phase composition. Contact between the diluted sera and the antigen-coated solid phase was maintained for a predetermined time such as 1 hour, and at 20 degrees C., for an immunoreactant to form. The solid and liquid phases were separated, and the solid phase; i.e., antigen-coated, immunoreactant-containing wells, was then washed three times with BBS.

Structure (SMILES)	Conformation by circular dichroism spectrum [1]	Reaction of VCA+ sera with polypeptide (anti-EBNA antibodies)	Reaction of VCA- sera with polypeptide (anti-EBNA antibodies)	Number of anti-EBNA positive sera positive against (bound to) polypeptide (anti-EBNA antibodies)	Titer of PSS patients versus normals (anti-EBNA antibodies)	Inhibition of binding of anti-polypeptide P62 to polypeptide P62 in the solid phase [2] [%]	OD405 × 10^3 obtained with Patient Antibodies to peptide (anti-EBNA antibodies; MV post-mononucleosis) [OD405 × 10^3]	OD405 × 10^3 obtained with Patient Antibodies to peptide (anti-EBNA antibodies; MV pre-mononucleosis) [OD405 × 10^3]	OD405 × 10^3 obtained with Patient Antibodies to peptide (anti-EBNA antibodies; SB post-mononucleosis) [OD405 × 10^3]	OD405 × 10^3 obtained with Patient Antibodies to peptide (anti-EBNA antibodies; SB pre-mononucleosis) [OD405 × 10^3]	OD405 × 10^3 obtained with Patient Antibodies to peptide (anti-EBNA antibodies; VCA+ Normal 1) [OD405 × 10^3]	OD405 × 10^3 obtained with Patient Antibodies to peptide (anti-EBNA antibodies; VCA+ Normal 2) [OD405 × 10^3]	OD405 × 10^3 obtained with Patient Antibodies to peptide (anti-EBNA antibodies; VCA- Normals (n = 27), average ± one standard deviation) [OD405 × 10^3]
CC[C@H](C)[C@H](N)C(=O)N[C@@H](CCSC)C(=O)N[C@@H](CO)C(=O)N[C@@H](CC(=O)O)C(=O)N[C@@H](CCC(=O)O)C(=O)NCC(=O)N1CCC[C@H]1C(=O)NCC(=O)N[C@H](C(=O)NCC(=O)N[C@@H](CC(N)=O)C(=O)NCC(=O)N[C@@H](CC(C)C)C(=O)NCC(=O)N[C@@H](CCC(=O)O)C(=O)O)[C@@H](C)O [Polypeptide F12, H--Ile--Met--Ser--Asp--Glu--Gly--Pro--Gly--Thr--Gly--Asn--Gly--Leu--Gly--Glu--OH] (H-IMSDEGPGTGNGLGE-OH)	partial assumption of such conformation	all of the VCA^+ individuals were positive	None of the VCA^- sera were found to react positively	–	–	–	–	–	–	–	–	–	–
C[C@H](NC(=O)CNC(=O)[C@@H]1CCCN1)C(=O)N1CCC[C@H]1C(=O)NCC(=O)NCC(=O)N[C@@H](CO)C(=O)NCC(=O)N[C@@H](CO)C(=O)NCC(=O)N1CCC[C@H]1C(=O)O [Polypeptide F13, H--Pro--Gly--Ala--Pro--Gly--Gly--Ser--Gly--Ser--Gly--Pro--OH] (H-PGAPGGSGSGP-OH)	random conformation	all of the VCA^+ individuals were positive	None of the VCA^- sera were found to react positively	–	–	–	–	–	–	–	–	–	–
C[C@H](NC(=O)CNC(=O)CNC(=O)CNC(=O)[C@H](C)NC(=O)CNC(=O)[C@H](C)NC(=O)CNC(=O)CNC(=O)[C@H](C)NC(=O)CNC(=O)CNC(=O)[C@H](C)NC(=O)CNC(=O)CN)C(=O)NCC(=O)O [Polypeptide F14, H--Gly--Gly--Ala--Gly--Gly--Ala--Gly--Gly--Ala--Gly--Ala--Gly--Gly--Gly--Ala--Gly--OH] (H-GGAGGAGGAGAGGGAG-OH)	very similar spectra	all of the VCA^+ individuals were positive	None of the VCA^- sera were found to react positively	91	relatively higher average titer	–	–	–	–	–	–	–	–
C[C@H](NC(=O)CN)C(=O)NCC(=O)NCC(=O)N[C@@H](C)C(=O)NCC(=O)N[C@@H](C)C(=O)NCC(=O)NCC(=O)NCC(=O)N[C@@H](C)C(=O)NCC(=O)NCC(=O)N[C@@H](C)C(=O)NCC(=O)NCC(=O)O [Polypeptide F15, H--Gly--Ala--Gly--Gly--Ala--Gly--Ala--Gly--Gly--Gly--Ala--Gly--Gly--Ala--Gly--Gly--OH] (H-GAGGAGAGGGAGGAGG-OH)	very similar spectra	all of the VCA^+ individuals were positive	None of the VCA^- sera were found to react positively	91	relatively higher average titer	–	–	–	–	–	–	–	–
C[C@H](NC(=O)CNC(=O)CNC(=O)[C@H](C)NC(=O)CNC(=O)[C@H](C)NC(=O)CNC(=O)CNC(=O)[C@H](C)NC(=O)CNC(=O)[C@H](C)NC(=O)CNC(=O)CNC(=O)[C@H](C)NC(=O)CNC(=O)[C@H](C)NC(=O)CNC(=O)CN)C(=O)NCC(=O)N[C@@H](C)C(=O)NCC(=O)O [Polypeptide F16, H--Gly--Gly--Ala--Gly--Ala--Gly--Gly--Ala--Gly--Ala--Gly--Gly--Ala--Gly--Ala--Gly--Gly--Ala--Gly--Ala--Gly--OH] (H-GGAGAGGAGAGGAGAGGAGAG-OH)	–	all of the VCA^+ individuals were positive	None of the VCA^- sera were found to react positively	91	relatively higher average titer	–	–	–	–	–	–	–	–
C[C@H](NC(=O)CNC(=O)CNC(=O)[C@H](C)NC(=O)CNC(=O)[C@H](C)NC(=O)CNC(=O)[C@H](C)NC(=O)CNC(=O)[C@@H](NC(=O)CNC(=O)CNC(=O)[C@H](Cc1c[nH]cn1)NC(=O)[C@@H](NC(=O)CNC(=O)[C@@H](N)CCCCN)[C@@H](C)O)[C@@H](C)O)C(=O)NCC(=O)N[C@@H](C)C(=O)NCC(=O)O [Polypeptide P27, H--Lys--Gly--Thr--His--Gly--Gly--Thr--Gly--Ala--Gly--Ala--Gly--Ala--Gly--Gly--Ala--Gly--Ala--Gly--OH] (H-KGTHGGTGAGAGAGGAGAG-OH)	very similar spectra	all of the VCA^+ individuals were positive	None of the VCA^- sera were found to react positively	91	relatively higher average titer	36	107	15	33	11	155	516	67 ± 23
CSCC[C@H](NC(=O)[C@@H]1CCCN1C(=O)[C@H](CCCNC(=N)N)NC(=O)[C@H](CCCCN)NC(=O)[C@H](CCC(=O)O)NC(=O)CNC(=O)[C@H](CCCNC(=N)N)NC(=O)CNC(=O)[C@H](CCCNC(=N)N)NC(=O)CNC(=O)[C@H](CCCNC(=N)N)NC(=O)CNC(=O)[C@H](CCCNC(=N)N)NC(=O)[C@H](C)NC(=O)[C@@H](N)CCCNC(=N)N)C(=O)O [Polypeptide P89, H--Arg--Ala--Arg--Gly--Arg--Gly--Arg--Gly--Arg--Gly--Glu--Lys--Arg--Pro--Met--OH] (H-RARGRGRGRGEKRPM-OH)	–	–	–	–	–	–	25	29	23	9	23	16	–
